In ChEMBL document CHEMBL2163275, “The lipogenesis pathway as a cancer target” (J Med Chem, 2011):

Experiments:
Fatty acid synthase [1] = target: T1, Fatty acid synthase (Homo sapiens, UniProt P49327); test: Inhibition of FASN in human SKBR3 cells; type: cell-based, SK-BR-3
Fatty acid synthase [2] = target: T1, Fatty acid synthase; test: Reversible inhibition of human recombinant FASN ketoreductase site
Acetyl-CoA carboxylase 2 = Acetyl-CoA carboxylase 2 (Homo sapiens, UniProt O00763); test: Inhibition of human ACC2 using acetyl coA as substrate and [14C]NaHCO3 incubated for 5 mins prior to substrate addition by liquid scintillation counting
Acetyl-CoA carboxylase 1 = Acetyl-CoA carboxylase 1 (Homo sapiens, UniProt Q13085); test: Inhibition of human ACC1 using acetyl coA as substrate and [14C]NaHCO3 incubated for 5 mins prior to substrate addition by liquid scintillation counting
Fatty acid synthase [3] = target: T1, Fatty acid synthase; test: Antagonist activity at recombinant FASN thioesterase domain by fluorogenic assay; type: functional
ATP-citrate synthase [4] = target: T2, ATP-citrate synthase (Rattus norvegicus, UniProt P16638); test: Competitive inhibition of rat liver ACLY using CoA as substrate by spectrophotometric analysis
T2 sequence (P16638 whole entry): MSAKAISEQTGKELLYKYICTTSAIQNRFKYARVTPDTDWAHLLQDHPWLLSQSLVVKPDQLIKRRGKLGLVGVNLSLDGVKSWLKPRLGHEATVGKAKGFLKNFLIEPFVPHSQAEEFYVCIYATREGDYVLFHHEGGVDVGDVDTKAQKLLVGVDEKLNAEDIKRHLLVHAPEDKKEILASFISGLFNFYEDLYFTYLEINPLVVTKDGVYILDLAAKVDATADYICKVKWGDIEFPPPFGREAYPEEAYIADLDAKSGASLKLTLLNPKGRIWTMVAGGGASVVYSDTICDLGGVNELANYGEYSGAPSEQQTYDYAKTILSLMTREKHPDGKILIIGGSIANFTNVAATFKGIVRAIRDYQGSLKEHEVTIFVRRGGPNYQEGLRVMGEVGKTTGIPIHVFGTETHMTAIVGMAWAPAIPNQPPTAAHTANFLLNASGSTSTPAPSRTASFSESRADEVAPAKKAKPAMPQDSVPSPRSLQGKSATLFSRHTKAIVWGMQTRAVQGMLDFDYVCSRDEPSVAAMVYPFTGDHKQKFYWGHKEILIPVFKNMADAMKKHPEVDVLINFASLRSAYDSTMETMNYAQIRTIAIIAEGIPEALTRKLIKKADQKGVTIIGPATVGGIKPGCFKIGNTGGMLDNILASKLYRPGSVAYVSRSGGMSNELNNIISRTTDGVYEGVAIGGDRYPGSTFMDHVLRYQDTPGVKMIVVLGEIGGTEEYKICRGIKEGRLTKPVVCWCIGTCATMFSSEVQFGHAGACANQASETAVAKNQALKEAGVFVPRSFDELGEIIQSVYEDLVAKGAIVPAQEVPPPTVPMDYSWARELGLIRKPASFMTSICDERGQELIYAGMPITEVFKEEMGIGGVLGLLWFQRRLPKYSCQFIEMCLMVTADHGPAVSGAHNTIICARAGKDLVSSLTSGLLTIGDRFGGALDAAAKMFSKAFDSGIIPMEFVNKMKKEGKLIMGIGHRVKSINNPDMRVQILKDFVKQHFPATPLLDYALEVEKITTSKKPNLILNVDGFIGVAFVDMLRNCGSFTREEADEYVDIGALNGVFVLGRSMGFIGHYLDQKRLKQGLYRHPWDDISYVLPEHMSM

ATP-citrate synthase [5] = target: T2, ATP-citrate synthase; test: Competitive inhibition of rat liver ACLY using citrate as substrate by spectrophotometric analysis
[6] = Inhibition of rat liver ACC
Fatty acid synthase [7] = target: T3, Fatty acid synthase (Gallus gallus, UniProt P12276); test: Inhibition of chicken liver FASN after 3 hrs
T3 sequence (P12276 whole entry): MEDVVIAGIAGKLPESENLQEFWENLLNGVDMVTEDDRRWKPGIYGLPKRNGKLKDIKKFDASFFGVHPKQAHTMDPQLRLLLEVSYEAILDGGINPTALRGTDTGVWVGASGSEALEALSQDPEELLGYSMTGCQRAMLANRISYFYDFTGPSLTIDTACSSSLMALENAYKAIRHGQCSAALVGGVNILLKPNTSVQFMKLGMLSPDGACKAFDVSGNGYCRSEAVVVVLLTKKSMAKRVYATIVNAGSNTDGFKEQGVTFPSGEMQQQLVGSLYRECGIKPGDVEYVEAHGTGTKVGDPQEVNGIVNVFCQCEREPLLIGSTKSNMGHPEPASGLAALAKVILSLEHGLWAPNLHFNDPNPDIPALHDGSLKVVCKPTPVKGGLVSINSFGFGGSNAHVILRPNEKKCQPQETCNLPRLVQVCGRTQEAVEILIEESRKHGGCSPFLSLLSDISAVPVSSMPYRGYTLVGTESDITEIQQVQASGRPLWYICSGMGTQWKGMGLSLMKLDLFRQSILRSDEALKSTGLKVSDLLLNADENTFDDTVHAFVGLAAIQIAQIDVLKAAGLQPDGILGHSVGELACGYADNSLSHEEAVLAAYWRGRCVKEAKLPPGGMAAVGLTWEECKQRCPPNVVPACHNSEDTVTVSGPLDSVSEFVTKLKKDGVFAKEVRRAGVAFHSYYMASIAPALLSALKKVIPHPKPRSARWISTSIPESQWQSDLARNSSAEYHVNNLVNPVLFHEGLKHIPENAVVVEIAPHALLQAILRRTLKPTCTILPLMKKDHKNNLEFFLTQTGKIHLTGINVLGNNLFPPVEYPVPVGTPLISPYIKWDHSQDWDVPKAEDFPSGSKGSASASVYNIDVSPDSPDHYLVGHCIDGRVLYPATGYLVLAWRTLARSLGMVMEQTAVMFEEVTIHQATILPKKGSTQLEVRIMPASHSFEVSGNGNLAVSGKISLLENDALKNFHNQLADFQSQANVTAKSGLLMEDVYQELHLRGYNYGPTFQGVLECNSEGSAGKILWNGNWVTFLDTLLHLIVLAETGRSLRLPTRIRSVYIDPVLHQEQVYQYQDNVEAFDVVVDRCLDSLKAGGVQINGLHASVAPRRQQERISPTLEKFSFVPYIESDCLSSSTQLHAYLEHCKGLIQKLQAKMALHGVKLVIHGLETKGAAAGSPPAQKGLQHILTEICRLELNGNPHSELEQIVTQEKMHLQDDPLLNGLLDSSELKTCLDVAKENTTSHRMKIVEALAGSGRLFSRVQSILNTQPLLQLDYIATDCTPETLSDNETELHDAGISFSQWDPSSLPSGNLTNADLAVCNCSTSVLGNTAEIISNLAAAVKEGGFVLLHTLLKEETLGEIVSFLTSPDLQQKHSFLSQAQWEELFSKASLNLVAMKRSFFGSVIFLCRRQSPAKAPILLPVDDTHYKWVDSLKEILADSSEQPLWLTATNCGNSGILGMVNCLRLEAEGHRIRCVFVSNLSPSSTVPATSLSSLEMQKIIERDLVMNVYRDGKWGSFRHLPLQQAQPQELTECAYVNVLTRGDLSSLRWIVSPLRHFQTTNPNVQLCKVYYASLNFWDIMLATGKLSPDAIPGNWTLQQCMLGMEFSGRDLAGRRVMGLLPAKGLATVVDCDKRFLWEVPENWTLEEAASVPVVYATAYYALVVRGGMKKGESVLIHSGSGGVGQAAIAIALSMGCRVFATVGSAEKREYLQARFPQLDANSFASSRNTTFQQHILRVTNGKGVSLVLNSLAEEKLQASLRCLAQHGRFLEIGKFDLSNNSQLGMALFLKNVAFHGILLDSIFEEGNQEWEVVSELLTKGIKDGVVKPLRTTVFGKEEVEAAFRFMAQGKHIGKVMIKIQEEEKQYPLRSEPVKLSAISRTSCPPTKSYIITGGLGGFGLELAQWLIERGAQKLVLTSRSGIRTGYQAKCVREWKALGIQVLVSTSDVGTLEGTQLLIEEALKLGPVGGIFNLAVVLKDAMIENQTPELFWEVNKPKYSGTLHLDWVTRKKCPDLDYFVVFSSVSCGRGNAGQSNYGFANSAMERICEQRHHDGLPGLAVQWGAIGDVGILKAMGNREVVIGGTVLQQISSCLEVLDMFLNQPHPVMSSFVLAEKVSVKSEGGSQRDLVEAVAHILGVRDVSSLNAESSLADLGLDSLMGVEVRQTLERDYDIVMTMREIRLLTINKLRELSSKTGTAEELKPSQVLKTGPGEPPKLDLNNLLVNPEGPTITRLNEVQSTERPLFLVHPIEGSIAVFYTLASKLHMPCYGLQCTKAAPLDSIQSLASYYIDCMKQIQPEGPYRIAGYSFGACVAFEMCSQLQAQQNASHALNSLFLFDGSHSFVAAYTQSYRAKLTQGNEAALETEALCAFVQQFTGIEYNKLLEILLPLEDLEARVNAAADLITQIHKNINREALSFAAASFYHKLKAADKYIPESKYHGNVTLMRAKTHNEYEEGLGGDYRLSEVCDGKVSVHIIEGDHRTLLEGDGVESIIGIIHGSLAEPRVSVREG

Fatty acid synthase [8] = target: T3, Fatty acid synthase; test: Inhibition of chicken liver FASN ketoreductase activity
BGC-823 = test: Cytotoxicity against human BGC823 cells; type: functional, cell-based
[9] = Inhibition of duck liver FASN; set-up: species or system Anas platyrhynchos
ATP-citrate synthase [10] = target: T2, ATP-citrate synthase; test: Competitive inhibition of rat liver ACLY using ATP as substrate by spectrophotometric analysis
Fatty acid synthase [11] = target: T1, Fatty acid synthase; test: Inhibition of FASN in human HepG2 cells; type: cell-based
Fatty acid synthase [12] = target: Fatty acid synthase (Rattus norvegicus, UniProt P12785); test: Inhibition of FASN in rat liver
[13] = Inhibition of Escherichia coli FabB

T1 sequence (P49327 whole entry): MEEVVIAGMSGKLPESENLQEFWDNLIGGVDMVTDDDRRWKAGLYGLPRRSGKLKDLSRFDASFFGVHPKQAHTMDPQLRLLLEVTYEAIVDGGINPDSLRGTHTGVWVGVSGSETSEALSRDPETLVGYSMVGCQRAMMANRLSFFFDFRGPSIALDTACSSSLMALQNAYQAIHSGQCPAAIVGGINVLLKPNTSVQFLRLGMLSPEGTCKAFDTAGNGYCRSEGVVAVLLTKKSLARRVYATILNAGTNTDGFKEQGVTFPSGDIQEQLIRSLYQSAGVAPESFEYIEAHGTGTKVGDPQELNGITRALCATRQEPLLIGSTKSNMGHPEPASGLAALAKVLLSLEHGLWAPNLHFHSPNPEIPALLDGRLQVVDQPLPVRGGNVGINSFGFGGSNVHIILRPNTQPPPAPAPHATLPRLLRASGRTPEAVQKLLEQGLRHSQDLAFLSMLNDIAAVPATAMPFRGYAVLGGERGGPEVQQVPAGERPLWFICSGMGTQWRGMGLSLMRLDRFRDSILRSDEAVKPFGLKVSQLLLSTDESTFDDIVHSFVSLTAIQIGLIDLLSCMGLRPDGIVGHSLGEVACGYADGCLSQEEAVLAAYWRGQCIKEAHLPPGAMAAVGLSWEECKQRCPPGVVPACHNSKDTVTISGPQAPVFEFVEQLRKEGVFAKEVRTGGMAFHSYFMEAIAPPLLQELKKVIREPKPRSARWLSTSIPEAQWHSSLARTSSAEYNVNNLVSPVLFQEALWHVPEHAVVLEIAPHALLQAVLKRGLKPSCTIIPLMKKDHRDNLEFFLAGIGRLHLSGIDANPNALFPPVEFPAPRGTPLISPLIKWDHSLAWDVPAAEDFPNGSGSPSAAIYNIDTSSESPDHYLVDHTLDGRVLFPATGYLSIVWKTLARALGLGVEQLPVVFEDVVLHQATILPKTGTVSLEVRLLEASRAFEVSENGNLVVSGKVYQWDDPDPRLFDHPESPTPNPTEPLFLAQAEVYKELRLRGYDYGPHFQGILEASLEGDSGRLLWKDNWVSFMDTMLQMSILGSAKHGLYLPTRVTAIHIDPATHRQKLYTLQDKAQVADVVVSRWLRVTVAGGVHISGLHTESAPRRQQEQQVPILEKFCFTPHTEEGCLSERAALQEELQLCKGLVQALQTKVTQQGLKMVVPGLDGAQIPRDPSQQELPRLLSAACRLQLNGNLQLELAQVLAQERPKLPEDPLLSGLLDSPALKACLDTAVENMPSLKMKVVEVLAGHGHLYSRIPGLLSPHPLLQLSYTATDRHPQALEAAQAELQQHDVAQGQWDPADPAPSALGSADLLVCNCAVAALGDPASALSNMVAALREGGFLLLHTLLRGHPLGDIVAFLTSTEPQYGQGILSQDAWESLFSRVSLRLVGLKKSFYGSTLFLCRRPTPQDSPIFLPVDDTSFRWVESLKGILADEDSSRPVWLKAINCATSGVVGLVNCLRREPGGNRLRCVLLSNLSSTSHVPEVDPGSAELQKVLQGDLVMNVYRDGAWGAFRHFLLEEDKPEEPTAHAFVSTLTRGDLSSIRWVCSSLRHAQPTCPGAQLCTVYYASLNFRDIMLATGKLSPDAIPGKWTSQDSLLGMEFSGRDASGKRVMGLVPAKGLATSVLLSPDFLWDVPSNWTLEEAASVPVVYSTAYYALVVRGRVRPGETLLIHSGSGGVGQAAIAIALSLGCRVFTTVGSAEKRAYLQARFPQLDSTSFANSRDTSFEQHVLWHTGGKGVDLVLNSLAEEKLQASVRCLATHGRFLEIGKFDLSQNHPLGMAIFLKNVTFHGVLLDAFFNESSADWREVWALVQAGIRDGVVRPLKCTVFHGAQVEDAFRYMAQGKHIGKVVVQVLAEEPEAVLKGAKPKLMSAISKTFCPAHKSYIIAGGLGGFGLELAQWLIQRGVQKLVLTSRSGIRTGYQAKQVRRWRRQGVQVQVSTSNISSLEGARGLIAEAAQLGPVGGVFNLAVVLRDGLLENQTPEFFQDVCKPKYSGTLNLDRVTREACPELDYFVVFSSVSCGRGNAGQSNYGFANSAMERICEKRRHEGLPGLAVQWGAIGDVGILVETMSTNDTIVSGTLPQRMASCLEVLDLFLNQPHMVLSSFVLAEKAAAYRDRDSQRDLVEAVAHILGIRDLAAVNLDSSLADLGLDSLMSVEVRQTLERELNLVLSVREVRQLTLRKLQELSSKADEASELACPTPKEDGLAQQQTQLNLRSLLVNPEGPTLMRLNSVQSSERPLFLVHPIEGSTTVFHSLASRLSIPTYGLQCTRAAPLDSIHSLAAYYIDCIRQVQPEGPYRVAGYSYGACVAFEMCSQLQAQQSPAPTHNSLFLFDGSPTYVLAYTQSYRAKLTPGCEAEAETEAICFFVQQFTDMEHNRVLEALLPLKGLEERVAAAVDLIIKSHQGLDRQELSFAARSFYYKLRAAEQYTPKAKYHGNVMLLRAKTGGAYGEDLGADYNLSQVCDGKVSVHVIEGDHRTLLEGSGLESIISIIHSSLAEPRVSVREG

Molecule CCCCC/C=C\C=C\CCCCCCCCC(=O)O has an IC50 (Fatty acid synthase [1]) of 100 µM.

Work on Cc1ccnc(NS(=O)(=O)c2ccc(NC(=O)Nc3ccc(S(=O)(=O)Nc4nccc(C)n4)cc3)cc2)n1 yielded an IC50 (Fatty acid synthase [2]) of 0.0158 µM.

Work on CC(C)Oc1ccc(C2=NC(CSc3nc4ncccc4o3)CO2)cc1 (configuration not stated) yielded an IC50 (Acetyl-CoA carboxylase 2) of 2.8 µM and an IC50 (Acetyl-CoA carboxylase 1) greater than 100 µM.

O=C1O[C@@H](CCc2ccccc2)[C@H]1Cc1ccccc1 gave a Ki (Fatty acid synthase [3]) of 2.5 µM.

In the case of CC(C)(CCCCCCCCCCC(C)(C)CC(=O)O)CC(=O)O, the Ki (ATP-citrate synthase [4]) is reported as 3 µM, the Ki (ATP-citrate synthase [5]) is reported as 16 µM and the Ki [6] is reported as 70 µM.

O=C(O[C@@H]1Cc2c(O)cc(O)cc2O[C@@H]1c1ccc(O)c(O)c1)c1cc(O)c(O)c(O)c1 [EPICATECHIN GALLATE] gave an IC50 (Fatty acid synthase [7]) of 42 µM and an IC50 (Fatty acid synthase [8]) of 68 µM.

With O=C(O[C@H]1O[C@@H]2COc3c(c4cc(O)c(O)c(O)c4c4c(O)c(O)c(O)cc34)O[C@H]2[C@H](OC(=O)c2cc(O)c(O)c(O)c2)[C@H]1OC(=O)c1cc(O)c(O)c(O)c1)c1cc(O)c(O)c(Oc2c(C(=O)O[C@@H]3O[C@@H]4COC(=O)c5cc(O)c(O)c(O)c5-c5c(cc(O)c(O)c5O)C(=O)O[C@H]4[C@@H]4OC(=O)c5cc(O)c(O)c(O)c5-c5c(cc(O)c(O)c5O)C(=O)O[C@@H]34)cc(O)c(O)c2O)c1 [GEMIN A] the IC50 (BGC-823) was 40.4 µM and the IC50 [9] was 0.21 µM.

C[C@@H]1C[C@H]2O[C@@H]2/C=C\C=C\C(=O)Cc2c(Cl)c(O)cc(O)c2C(=O)O1 [RADICICOL] showed a Ki (ATP-citrate synthase [5]) of 13 µM and a Ki (ATP-citrate synthase [10]) of 7 µM.

In the case of C=C/C(C)=C/[C@@]1(C)SC(=O)C(C)=C1O [THIOLACTOMYCIN], the IC50 (Fatty acid synthase [11]) is reported as greater than 380 µM, the IC50 (Fatty acid synthase [12]) is reported as greater than 951 µM and the IC50 [13] is reported as 1.9 µM.
